Consider 1 compound from PubChem BioAssay (NCI).

Where “and” joins values, the source holds several entries; their conditions need not be identical. Identical values can stand only once.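 Five concentrations, 48 hours, 96-well plates. GI50: concentration for 50% inhibition of growth. The concentration for full growth arrest is given as TGI.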

The test system of this assay is P388 leukemia. As to the kind of experiment: NCI tumour cell line growth inhibition, 48 h.

On to `CC(C)CCCCCCCCCCCCC(=O)NCC(=O)NC1C(O)C(O)C(Nc2ncnc3nc[nH]c23)OC1C(O)CO` (configuration not stated), for which the GI50 is 5 nM; the TGI is 6.16 nM and 5.07 nM.
